# Test results: US20260217674A1 (priority 2023, published 2026)
# Read-outs that look alike come from different tables or passages of the source.
# Legend:
# VGLUT3^T8I/T8I mice = test: Activity-based anorexia (ABA) model in hypocholinergic VGLUT3^T8I/T8I mice; format: in vivo; conditions: for percentage of mice weighing at least 75% of their baseline body weight: after 8 days
# From the text: Self-starvation behaviors are modeled in the activity-based anorexia (ABA) test (Klenotich, S. J., Dulawa, 2012 Methods Mol Biol 829, 377-93). In this test, animals are housed in the presence of a running wheel. Access to food is progressively restricted over a period of 8 days. For these animal experiments, an hypocholinergic mouse model was used. The type 3 atypical vesicular transporter (VGLUT3) is expressed by all cholinergic striatal interneurons (El Mestikawy et al. 2011, Nat Rev Neurosci 12(4), 204-16).
# In 2015, the El Mestikawy team discovered a p.T8I variant of VGLUT3 expressed in patients suffering from substance use disorder and from eating disorders (Sakae et al. Mol Psychiatry, 2015, 20(11), 1448-59). Mice expressing this variant (VGLUT3^T8I/T8I mice) have a reduced cholinergic tone in the striatum and are more vulnerable to self-starvation in the ABA model. In other terms, VGLUT3^T8I/T8I mice present the same main symptomology than anorexic patients and are considered to be a model of choice for anorexia.
# The ABA model was performed as described by Klenotich and Dulawa (Klenotich, S. J., Dulawa, 2012 Methods Mol Biol 829, 377-93) and as previously reported (Favier, M., et al., J Clin Invest 130, 6616-6630 (2020)). For habituation, all mice were individually housed in cages with running wheels for 7 days with unrestricted access to food, water and running wheel. After the adaptation period, all mice were maintained in the same running wheel cages for 8 additional days. Access to food was progressively restricted, from 8 h (day 1) to 2 h (day 8) per day. Body weight and food intake were measured daily before and after food access, respectively. […]. Mice were treated daily 30 min before the start of food access, during both baseline and food restriction phases.
# [1] = target: acetylcholinesterase (AChE) (Homo sapiens, UniProt P22303); test: biochemical; format: biochemical; conditions: for inhibition at 0.001 µM: read-out: % Inhibition (1 nM); for inhibition at 0.01 µM: read-out: % Inhibition (10 nM); for inhibition at 0.1 µM: read-out: % Inhibition (100 nM)
# Protocol: A solution of each tested compound is prepared by dissolving the compound in DMSO at 1 mM stock solution and diluting with water to the following concentration 100 nM, 10 nM and 1 nM.
# The procedure of MAK119 kit assay of Sigma Aldrich (colorimetric test) has been followed as described:
# The Working Reagent (MAK119C) of the kit is prepared fresh and used within 30 minutes.
# A solution B made with […] of water and […] of Calibrator (MAK119B of the kit) is distributed into separate wells of the 96-well plate. […] of the solution of the tested compound is added into wells and then […] of the solution A is added to all sample wells.
# The plate was incubated at room temperature for 2 min and the initial absorbance at 412 nm (A412)ini was measured. After 10 min of incubation at room temperature the final measurement (A412)final.
# The following calculation is then achieved: […] Inhibition was calculated by comparing the absorbance of the samples containing the tested compounds at 412 nm (A412) and of the absorbance of the negative and positive controls after 12 min of incubation.
# [2] = compound 1 nM, absorbance 412 nm, 12 min incubation
# [3] = compound 10 nM, absorbance 412 nm, 12 min incubation
# [4] = compound 100 nM, absorbance 412 nm, 12 min incubation
# Chain of acetylcholinesterase (AChE) (P22303 32-614): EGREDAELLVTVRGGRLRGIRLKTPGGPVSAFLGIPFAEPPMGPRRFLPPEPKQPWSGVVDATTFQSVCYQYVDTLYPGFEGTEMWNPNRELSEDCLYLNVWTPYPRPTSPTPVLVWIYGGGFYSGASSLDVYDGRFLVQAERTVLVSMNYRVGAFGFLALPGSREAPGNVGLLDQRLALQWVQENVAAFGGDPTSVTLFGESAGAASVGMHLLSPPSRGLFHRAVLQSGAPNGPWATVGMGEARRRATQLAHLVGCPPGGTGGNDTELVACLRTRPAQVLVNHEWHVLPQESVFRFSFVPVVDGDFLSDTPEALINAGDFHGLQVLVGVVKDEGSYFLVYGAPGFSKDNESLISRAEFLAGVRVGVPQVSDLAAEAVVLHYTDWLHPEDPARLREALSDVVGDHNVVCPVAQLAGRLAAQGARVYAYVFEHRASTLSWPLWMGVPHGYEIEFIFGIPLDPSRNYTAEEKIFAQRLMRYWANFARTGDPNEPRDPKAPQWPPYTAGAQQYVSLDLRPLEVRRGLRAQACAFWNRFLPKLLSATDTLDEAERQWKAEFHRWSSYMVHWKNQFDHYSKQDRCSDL
smiles,measurement,setting,value
COc1ccc2c(c1)C=C/C(=C/Oc1cc3c(cc1OC)C(=O)C(CC1CCN(Cc4ccccc4)CC1)C3)N2C(C)C (centres unmarked) [Compound 56],percentage of mice weighing at least 75% of their baseline body weight,VGLUT3^T8I/T8I mice; 0.01 mg/kg daily i.p.,about 90%
same,percentage of mice weighing at least 75% of their baseline body weight,"VGLUT3^T8I/T8I mice; 0.03 mg/kg daily i.p., FIG. 1(B)",60%
same,efficiency in reducing the food restriction (food intake),"VGLUT3^T8I/T8I mice; donquine 0.01 mg/kg versus donepezil 0.03 mg/kg daily i.p., FIG. 1(C)",more efficient than donepezil at 0.03 mg/kg
same,inhibition at 0.001 µM,[1]; [2],50%
same,inhibition at 0.01 µM,[1]; [3],75%
same,inhibition at 0.1 µM,[1]; [4],100%
COc1cc2c(cc1OC[n+]1cccc3ccc(O)cc31)CC(CC1CCN(Cc3ccccc3)CC1)C2=O (centres unmarked) [Compound 57],inhibition at 0.01 µM,[1],100%
same,inhibition at 0.1 µM,[1],100%
COc1cc2c(cc1OC[n+]1cccc3cccc(N)c31)CC(CC1CCN(Cc3ccccc3)CC1)C2=O (centres unmarked) [Compound 59],inhibition at 0.01 µM,[1]; [3],100%
same,inhibition at 0.1 µM,[1]; [4],100%
COc1cc2c(cc1OCc1ccc3cccc(N)c3[n+]1C)CC(CC1CCN(Cc3ccccc3)CC1)C2=O (centres unmarked) [Compound 62],inhibition at 0.01 µM,[1]; [3],100%
same,inhibition at 0.1 µM,[1]; [4],100%
COc1cc2c(cc1OCc1ccc3c(Cl)cc[n+](C)c3c1)CC(CC1CCN(Cc3ccccc3)CC1)C2=O (centres unmarked) [Compound 63],inhibition at 0.001 µM,[1],75%
same,inhibition at 0.01 µM,[1],75%
same,inhibition at 0.1 µM,[1],75%
COc1cc2c(cc1OCc1ccc3ccc[n+](C)c3c1)CC(CC1CCN(Cc3ccccc3)CC1)C2=O (centres unmarked) [Compound 64],inhibition at 0.001 µM,[1]; [2],25%
same,inhibition at 0.01 µM,[1]; [3],100%
same,inhibition at 0.1 µM,[1]; [4],100%
COc1cc2c(cc1OCc1cc[n+](C(C)C)c3ccccc13)CC(CC1CCN(Cc3ccccc3)CC1)C2=O (centres unmarked) [Compound 75],% Inhibition (10 nM),[1]; [3],100%
same,% Inhibition (100 nM),[1]; [4],100%
COc1cc2c(cc1OCc1ccc3ccccc3[n+]1C(C)C)CC(CC1CCN(Cc3ccccc3)CC1)C2=O (centres unmarked) [Compound 76],inhibition at 0.01 µM,[1]; [3],100%
same,inhibition at 0.1 µM,[1]; [4],100%
"COc1cc2c(cc1OC)C(=O)C(CC1CCN(Cc3ccccc3)CC1)C2 (centres unmarked) [Donepezil, donepezil, reference compound]",efficiency in reducing the number of mice losing weight until 75% of baseline bodyweight or less,"VGLUT3^T8I/T8I mice; donepezil 0.03 mg/kg versus donquine 0.01 mg/kg daily i.p., FIG. 1(D)",less efficient
